Results published in PubChem BioAssay AID1963982 (Molecular Pharmacology Branch, DTP, NCI, 2024).
“And” between values parts separate entries of the source, which are not always exact repeats. Equal entries are not always repeated.

Tested on: 313798-341-R-J2-PDC spheroids, viability
Experiment: Anticancer human tumor 313798-341-R-J2-PDC patient-derived cervical squamous cell carcinoma cell line growth inhibition [PI3K]
Conditions: spheroids with HUVEC and MSC; for viability, T/C: stronger effect = lower value
Procedure, shortened: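 Three cell types, namely tumor cells, endothelial cells and mesenchymal stem cells, formed each spheroid. Combinations with four PI3K inhibitors were screened at clinically achievable concentrations decreasing by half-log, and spheroid viability was recorded.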

[1] = curve of first compound, second compound 0.0316 µM
[2] = curve of first compound, second compound 0.1 µM
[3] = curve of first compound, second compound 0.316 µM
[4] = curve of first compound, second compound 1 µM
[5] = second compound 0.0316 µM, first compound 0.0316 µM
[6] = second compound 0.0316 µM, first compound 0.1 µM
[7] = second compound 0.0316 µM, first compound 0.316 µM
[8] = second compound 0.0316 µM, first compound 1 µM
[9] = second compound 0.0316 µM, first compound 3.16 µM
[10] = second compound 0.0316 µM, first compound 10 µM
[11] = second compound 0.1 µM, first compound 0.0316 µM
[12] = second compound 0.1 µM, first compound 0.1 µM
[13] = second compound 0.1 µM, first compound 0.316 µM
[14] = second compound 0.1 µM, first compound 1 µM
[15] = second compound 0.1 µM, first compound 3.16 µM
[16] = second compound 0.1 µM, first compound 10 µM
[17] = second compound 0.316 µM, first compound 0.0316 µM
[18] = second compound 0.316 µM, first compound 0.1 µM
[19] = second compound 0.316 µM, first compound 0.316 µM
[20] = second compound 0.316 µM, first compound 1 µM
[21] = second compound 0.316 µM, first compound 3.16 µM
[22] = second compound 0.316 µM, first compound 10 µM
[23] = second compound 1 µM, first compound 0.0316 µM
[24] = second compound 1 µM, first compound 0.1 µM
[25] = second compound 1 µM, first compound 0.316 µM
[26] = second compound 1 µM, first compound 1 µM
[27] = second compound 1 µM, first compound 3.16 µM
[28] = second compound 1 µM, first compound 10 µM
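Further: spheroids exposed to compounds for seven days.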
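Wherever viability, T/C is given: 100% = DMSO vehicle control viability.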

`Cn1ncc(Cl)c1-c1cc(C(=O)NC(CN)Cc2cccc(F)c2)sc1Cl` (stereo not given) + COc1c(OCCCN2CCOCC2)ccc2c3n(c(=NC(=O)c4cnc(N)nc4)nc12)CCN3 was tested, and the IC50 (curve of first compound, second compound 0.00316 µM) was 930 nM, the IC50 (curve of first compound, second compound 0.01 µM) was 678 nM and the IC50 [1] was 280 nM. The IC50 [2] was < 31.6 nM, the IC50 [3] was < 31.6 nM and the IC50 [4] was < 31.6 nM. It also gave a viability, T/C (second compound 0.00316 µM, first compound 0.0316 µM) of 107%, a viability, T/C (second compound 0.00316 µM, first compound 0.1 µM) of 84.7% and a viability, T/C (second compound 0.00316 µM, first compound 0.316 µM) of 71%. The viability, T/C (second compound 0.00316 µM, first compound 1 µM) was 46.7%, the viability, T/C (second compound 0.00316 µM, first compound 3.16 µM) was 36.6% and the viability, T/C (second compound 0.00316 µM, first compound 10 µM) was 35.5%. The viability, T/C (second compound 0.01 µM, first compound 0.0316 µM) was 100%, the viability, T/C (second compound 0.01 µM, first compound 0.1 µM) was 99% and the viability, T/C (second compound 0.01 µM, first compound 0.316 µM) was 69.2%. For the same compound, the viability, T/C (second compound 0.01 µM, first compound 1 µM) was 41.6%, the viability, T/C (second compound 0.01 µM, first compound 3.16 µM) was 30.8% and the viability, T/C (second compound 0.01 µM, first compound 10 µM) was 36.8%. It also gave a viability, T/C [5] of 99.3%, a viability, T/C [6] of 61.9% and a viability, T/C [7] of 53.7%. For the same compound, the viability, T/C [8] was 36.4%, the viability, T/C [9] was 25.2% and the viability, T/C [10] was 25.5%. It also gave a viability, T/C [11] of 49.4%, a viability, T/C [12] of 43.5% and a viability, T/C [13] of 41.4%. For the same compound, the viability, T/C [14] was 27.1%, the viability, T/C [15] was 20.2% and the viability, T/C [16] was 15.4%. For the same compound, the viability, T/C [17] was 17.5%, the viability, T/C [18] was 18.1% and the viability, T/C [19] was 15.2%. For the same compound, the viability, T/C [20] was 16.6%, the viability, T/C [21] was 13% and the viability, T/C [22] was 5.97%. The viability, T/C [23] was 12.7%, the viability, T/C [24] was 12.4% and the viability, T/C [25] was 13.6%. For the same compound, the viability, T/C [26] was 12.3%, the viability, T/C [27] was 9.74% and the viability, T/C [28] was 3.3%.

In the case of `CC(Nc1ccc2c(c1)OCCn1cc(N3C(=O)OCC3C(F)F)nc1-2)C(N)=O` (stereo not given), the viability, T/C (compound 0.00316 µM) is reported as 96.5% [middle of 8 runs], the viability, T/C (compound 0.01 µM) is reported as 103% [middle of 8 runs] and the viability, T/C (compound 0.0316 µM) is reported as 103% [middle of 8 runs]. For the same compound, the viability, T/C (compound 0.316 µM) was 76.6% [middle of 8 runs], the viability, T/C (compound 1 µM) was 53.9% [middle of 8 runs] and the IC50 (compound alone, run of 04/24/2023) was 523 nM and 908 nM and > 1000 nM.

In the case of `CNC(=O)c1ccc(N2C(=S)N(c3ccc(C#N)c(C(F)(F)F)c3)C(=O)C2(C)C)cc1F` + CC(Nc1ncnc2nc[nH]c12)c1cc2cccc(Cl)c2c(=O)n1-c1ccccc1, the IC50 [1] is reported as > 10000 nM, the IC50 [2] is reported as > 10000 nM and the IC50 [3] is reported as > 10000 nM. The IC50 [4] was > 10000 nM, the IC50 (curve of first compound, second compound 3.16 µM) was > 10000 nM and the IC50 (curve of first compound, second compound 10 µM) was > 10000 nM. It also gave a viability, T/C [5] of 104%, a viability, T/C [6] of 110% and a viability, T/C [7] of 100%. It also gave a viability, T/C [8] of 92.4%, a viability, T/C [9] of 121% and a viability, T/C [10] of 98.8%. It also gave a viability, T/C [11] of 102%, a viability, T/C [12] of 101% and a viability, T/C [13] of 112%. It also gave a viability, T/C [14] of 99.4%, a viability, T/C [15] of 106% and a viability, T/C [16] of 101%. The viability, T/C [17] was 94.8%, the viability, T/C [18] was 98.3% and the viability, T/C [19] was 92.6%. It also gave a viability, T/C [20] of 98.8%, a viability, T/C [21] of 98.3% and a viability, T/C [22] of 96.5%. The viability, T/C [23] was 95%, the viability, T/C [24] was 96.5% and the viability, T/C [25] was 97.8%. It also gave a viability, T/C [26] of 109%, a viability, T/C [27] of 100% and a viability, T/C [28] of 93.2%. For the same compound, the viability, T/C (second compound 3.16 µM, first compound 0.0316 µM) was 111%, the viability, T/C (second compound 3.16 µM, first compound 0.1 µM) was 101% and the viability, T/C (second compound 3.16 µM, first compound 0.316 µM) was 92.9%. It also gave a viability, T/C (second compound 3.16 µM, first compound 1 µM) of 93.9%, a viability, T/C (second compound 3.16 µM, first compound 3.16 µM) of 97.1% and a viability, T/C (second compound 3.16 µM, first compound 10 µM) of 84.8%. It also gave a viability, T/C (second compound 10 µM, first compound 0.0316 µM) of 82.8%, a viability, T/C (second compound 10 µM, first compound 0.1 µM) of 86.1% and a viability, T/C (second compound 10 µM, first compound 0.316 µM) of 85.5%. For the same compound, the viability, T/C (second compound 10 µM, first compound 1 µM) was 85.6%, the viability, T/C (second compound 10 µM, first compound 3.16 µM) was 88.4% and the viability, T/C (second compound 10 µM, first compound 10 µM) was 73.2%.
